# Experimental data taken from patent US20240132431A1, “METHOD FOR ALKYLATING ACIDIC FUNCTIONAL GROUP” (Chugai Seiyaku Kabushiki Kaisha, priority 2021, published 2024).
# Target: T1, Bcl-2 protein (Recombinant Human Bcl-2 Protein) (Homo sapiens, UniProt P10415)
# T1 construct: purchased Novus NBP2-34889
# Assay: Binding evaluation of mixture library compounds to Bcl-2 using AS-MS (affinity selection mass spectrometry)
# Conditions: for ASMS ratio (%) n = 1 / ASMS ratio (%) n = 2: ASMS Ratio(%)=(A−C)/B×100; for ASMS ratio (%) n = 1: replicate n = 1; for ASMS ratio (%) n = 2: replicate n = 2
# Outline: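 Pooled library of ~1200 compounds ([…] each, final) incubated with recombinant human Bcl-2 (20 μM final) in Tris-HCl pH 7.4, NaCl, Tween-20, DTT buffer, dark, 23° C., 1 h. Bound fraction recovered by SEC spin column, organic extraction, reversed-phase LC/MS. ASMS Ratio (%) = (A−C)/B×100 versus protein-free standard and SEC blank.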
# [1] = AS-MS on the mixture of 1200 library compounds
# [2] = AS-MS, mixture of 1200 compounds, Bcl-2
# T1 sequence (P10415 whole entry): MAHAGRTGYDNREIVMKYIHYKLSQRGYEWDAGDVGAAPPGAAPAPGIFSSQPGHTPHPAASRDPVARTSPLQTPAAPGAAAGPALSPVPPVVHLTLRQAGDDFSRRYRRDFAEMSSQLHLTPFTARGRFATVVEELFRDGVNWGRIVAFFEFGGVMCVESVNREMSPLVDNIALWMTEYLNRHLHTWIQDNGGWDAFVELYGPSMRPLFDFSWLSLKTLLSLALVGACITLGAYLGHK
compound,measurement,setting,value
"CCOc1cccc(-c2cc(C(=O)N3CCN(c4ccc(C(=O)N(CC)CC)cc4)CC3)cc(C(C)(C)C)c2)c1 [B4J037-01, 4-[4-[3-tert-Butyl-5-(3-ethoxyphenyl)benzoyl]piperazin-1-yl]-N,N-diethylbenzamide]",ASMS ratio (%) n = 1,[1],2.7%
same,ASMS ratio (%) n = 2,[1],−1.5%
"CCOc1cccc(C#Cc2ccccc2CN2CCN(c3ccc(C(=O)N(C)CC45CC6CC(CC(C6)C4)C5)cc3)CC2)c1 [B3A069-01, N-(1-Adamantylmethyl)-4-[4-[[2-[2-(3-ethoxyphenyl)ethynyl]phenyl]methyl]piperazin-1-yl]-N-methylbenzamide]",ASMS ratio (%) n = 2,[1],12872.1%
"CCOc1cccc(-c2ccccc2CCC(=O)N2CCN(c3ccc(C(=O)NCC(F)(F)F)nn3)CC2)c1 [B1K011-01, 6-[4-[3-[2-(3-Ethoxyphenyl)phenyl]propanoyl]piperazin-1-yl]-N-(2,2,2-trifluoroethyl)pyridazine-3-carboxamide]",ASMS ratio (%) n = 1,[2],−0.1%
same,ASMS ratio (%) n = 2,[2],0.3%
CCOc1cccc(-c2ccc(CN3CCN(c4ccc(C(=O)NS(=O)(=O)C(C)(C)C)cc4)CC3)c(OC)c2)c1 [B2L053-01],ASMS ratio (%),n = 1,0.0%
same,ASMS ratio (%),n = 2,0.0%
"CCOc1cccc(-c2ccc(CN3CCN(c4ccc(C(=O)NS(=O)(=O)C(C)(C)C)cc4)CC3)c(CC)c2)c1 [B2L049-01, N-tert-Butylsulfonyl-4-[4-[[4-(3-ethoxyphenyl)-2-ethylphenyl]methyl]piperazin-1-yl]benzamide]",ASMS ratio (%),n = 2,0.0%
"CCOc1cccc(-c2cc(CN3CCN(c4ccc(C(=O)Nc5ccc(OC)cc5)nn4)CC3)cc(OC(C)C)c2)c1 [B1O083-01, 6-[4-[[3-(3-Ethoxyphenyl)-5-propan-2-yloxyphenyl]methyl]piperazin-1-yl]-N-(4-methoxyphenyl)pyridazine-3-carboxamide]",ASMS ratio (%) n = 1,[1],7.2%
same,ASMS ratio (%) n = 2,[1],1.0%
"CCOc1cncc(-c2ccc(CN3CCN(c4ccc(C(=O)N(C)CC56CC7CC(CC(C7)C5)C6)cc4)CC3)c(CC)c2)c1 [B3A050-01, N-(1-Adamantylmethyl)-4-[4-[[4-(5-ethoxypyridin-3-yl)-2-ethylphenyl]methyl]piperazin-1-yl]-N-methylbenzamide]",ASMS ratio (%) n = 1,[1],6.1%
same,ASMS ratio (%) n = 2,[1],−4.3%
"CCOc1cccc(-c2ccc(C(=O)N3CCN(c4ccc(C(=O)NS(=O)(=O)CC56CC7CC(CC(C7)C5)C6)nn4)CC3)cc2F)c1 [B2A005-01, N-(1-Adamantylmethylsulfonyl)-6-[4-[4-(3-ethoxyphenyl)-3-fluorobenzoyl]piperazin-1-yl]pyridazine-3-carboxamide]",ASMS ratio (%) n = 1,"AS-MS, mixture library, Bcl-2",4.7%
same,ASMS ratio (%) n = 2,"AS-MS, mixture library, Bcl-2",12.4%
"CCOc1cccc(C#Cc2cncc(C(=O)N3CCN(c4ccc(C(=O)NS(=O)(=O)CC56CC7CC(CC(C7)C5)C6)nn4)CC3)c2)c1 [B2A009-01, N-(1-Adamantylmethylsulfonyl)-6-[4-[5-[2-(3-ethoxyphenyl)ethynyl]pyridine-3-carbonyl]piperazin-1-yl]pyridazine-3-carboxamide]",ASMS ratio (%) n = 1,"AS-MS, mixture library, Bcl-2",3.1%
same,ASMS ratio (%) n = 2,"AS-MS, mixture library, Bcl-2",7.2%
"CCOc1cncc(C#Cc2cc(C(=O)N3CCN(c4ccc(C(=O)NS(=O)(=O)CCC(F)(F)F)cc4)CC3)cc(C(F)(F)F)c2)c1 [B2N042-01, 4-[4-[3-[2-(5-Ethoxypyridin-3-yl)ethynyl]-5-(trifluoromethyl)benzoyl]piperazin-1-yl]-N-(3,3,3-trifluoropropylsulfonyl)benzamide]",ASMS ratio (%),n = 1,0.0%
same,ASMS ratio (%),n = 2,0.0%
"CCOc1cccc(-c2ccc(CN3CCN(c4ccc(C(=O)NCC56CC7CC(CC(C7)C5)C6)cc4)CC3)c3ccccc23)c1 [B1A065-01, N-(1-Adamantylmethyl)-4-[4-[[4-(3-ethoxyphenyl)naphthalen-1-yl]methyl]piperazin-1-yl]benzamide]",ASMS ratio (%) n = 1,[2],−32.6%
same,ASMS ratio (%) n = 2,[2],−10.4%
"CCOc1cncc(-c2ccc(CN3CCN(c4ccc(C(=O)NCC(F)(F)F)cc4)CC3)cc2F)c1 [B1K052-01, 4-[4-[[4-(5-Ethoxypyridin-3-yl)-3-fluorophenyl]methyl]piperazin-1-yl]-N-(2,2,2-trifluoroethyl)benzamide]",ASMS ratio (%) n = 1,[2],−3.3%
same,ASMS ratio (%) n = 2,[2],0.5%
"CCOc1cncc(C#Cc2cc(C(=O)N3CCN(c4ccc(C(=O)NS(=O)(=O)c5ccc(NCCSc6ccccc6)c([N+](=O)[O-])c5)cc4)CC3)cc(C(F)(F)F)c2)c1 [B2Q042-01, 4-[4-[3-[2-(5-Ethoxypyridin-3-yl)ethynyl]-5-(trifluoromethyl)benzoyl]piperazin-1-yl]-N-[3-nitro-4-(2-phenylsulfanylethylamino)phenyl]sulfonylbenzamide]",ASMS ratio (%) n = 1,"AS-MS, mixture library, Bcl-2",26.1%
same,ASMS ratio (%) n = 2,"AS-MS, mixture library, Bcl-2",19.5%
CCOc1cncc(-c2ccc(CN3CCN(c4ccc(C(=O)NCC(F)(F)F)cc4)CC3)c(CC)c2)c1 [B1K050-01],ASMS ratio (%) n = 1,[2],0.0%
same,ASMS ratio (%) n = 2,[2],0.0%
"CCOc1cncc(-c2cc(CN3CCN(c4ccc(C(=O)NS(=O)(=O)CCC(F)(F)F)nn4)CC3)cc(OC(F)(F)F)c2)c1 [B2N090-01, 6-[4-[[3-(5-Ethoxypyridin-3-yl)-5-(trifluoromethoxy)phenyl]methyl]piperazin-1-yl]-N-(3,3,3-trifluoropropylsulfonyl)pyridazine-3-carboxamide]",ASMS ratio (%),n = 1,0.0%
same,ASMS ratio (%),n = 2,0.0%
4-[4-[3-[2-(3-Ethoxyphenyl)ethynyl]-5-(trifluoromethyl)benzoyl]piperazin-1-yl]-N-propylbenzamide [B1M014-01],ASMS ratio (%) n = 1,[2],4.1%
same,ASMS ratio (%) n = 2,[2],0.4%
"CCOc1cncc(-c2ccc(C(=O)N3CCN(c4ccc(C(=O)NS(=O)(=O)c5ccc(NCCSc6ccccc6)c([N+](=O)[O-])c5)cc4)CC3)c3ccccc23)c1 [B2Q036-01, 4-[4-[4-(5-Ethoxypyridin-3-yl)naphthalene-1-carbonyl]piperazin-1-yl]-N-[3-nitro-4-(2-phenylsulfanylethylamino)phenyl]sulfonylbenzamide]",ASMS ratio (%) n = 1,"AS-MS, mixture library, Bcl-2",0.0%
same,ASMS ratio (%) n = 2,"AS-MS, mixture library, Bcl-2",−6.0%
"CCOc1cncc(-c2cc(CN3CCN(c4ccc(C(=O)N(C)CC56CC7CC(CC(C7)C5)C6)nn4)CC3)cc(OC(F)(F)F)c2)c1 [B3A090-01, N-(1-Adamantylmethyl)-6-[4-[[3-(5-ethoxypyridin-3-yl)-5-(trifluoromethoxy)phenyl]methyl]piperazin-1-yl]-N-methylpyridazine-3-carboxamide]",ASMS ratio (%) n = 1,[1],5.8%
same,ASMS ratio (%) n = 2,[1],−0.2%
CCOc1cccc(-c2cc(CN3CCN(c4ccc(C(=O)NS(=O)(=O)c5ccc(NCCSc6ccccc6)c(C(F)(F)F)c5)nn4)CC3)cc(OC(F)(F)F)c2)c1 [B2R089-01],ASMS ratio (%),n = 1,3.4%
same,ASMS ratio (%),n = 2,−9.2%
4-[4-[[3-(5-Ethoxypyridin-3-yl)-5-propan-2-yloxyphenyl]methyl]piperazin-1-yl]-N-propylbenzamide [B1M017-01],ASMS ratio (%) n = 1,[2],−0.1%
same,ASMS ratio (%) n = 2,[2],0.3%
"CCOc1cccc(-c2csc(CN3CCN(c4ccc(C(=O)NCC(F)(F)F)cc4)CC3)c2)c1 [B1K067-01, 4-[4-[[4-(3-Ethoxyphenyl)thiophen-2-yl]methyl]piperazin-1-yl]-N-(2,2,2-trifluoroethyl)benzamide]",ASMS ratio (%) n = 1,[2],5.1%
same,ASMS ratio (%) n = 2,[2],1.8%
4-[4-[4-(5-Ethoxypyridin-3-yl)thiophene-2-carbonyl]piperazin-1-yl]-N-propylbenzamide [B1M084-01],ASMS ratio (%) n = 1,[1],0.0%
same,ASMS ratio (%) n = 2,[1],0.0%
"CCOc1cncc(-c2cnn(-c3cc(C(=O)N4CCN(c5ccc(C(=O)NS(=O)(=O)CC67CC8CC(CC(C8)C6)C7)nn5)CC4)cc(C(F)(F)F)c3)c2)c1 [B2A022-01, N-(1-Adamantylmethylsulfonyl)-6-[4-[3-[4-(5-ethoxypyridin-3-yl)pyrazol-1-yl]-5-(trifluoromethyl)benzoyl]piperazin-1-yl]pyridazine-3-carboxamide]",ASMS ratio (%) n = 1,"AS-MS, mixture library, Bcl-2",27.0%
same,ASMS ratio (%) n = 2,"AS-MS, mixture library, Bcl-2",3.7%
"CCOc1cncc(-c2ccc(CN3CCN(c4ccc(C(=O)NS(=O)(=O)c5ccc(NCCSc6ccccc6)c(C(F)(F)F)c5)cc4)CC3)cc2F)c1 [B2R052-01, 4-[4-[[4-(5-Ethoxypyridin-3-yl)-3-fluorophenyl]methyl]piperazin-1-yl]-N-[4-(2-phenylsulfanylethylamino)-3-(trifluoromethyl)phenyl]sulfonylbenzamide]",ASMS ratio (%),n = 1,0.0%
same,ASMS ratio (%),n = 2,−7.4%
"CCOc1cccc(-c2csc(CN3CCN(c4ccc(C(=O)NCC56CC7CC(CC(C7)C5)C6)nn4)CC3)c2)c1 [B1A093-01, N-(1-Adamantylmethyl)-6-[4-[[4-(3-ethoxyphenyl)thiophen-2-yl]methyl]piperazin-1-yl]pyridazine-3-carboxamide]",ASMS ratio (%) n = 1,[2],−5.3%
same,ASMS ratio (%) n = 2,[2],0.0%
